According to US12655116B2, “Substituted isophthalic acid diamides” (Bayer Aktiengesellschaft, priority 2020, dated 2026):

What was measured:
PHBPU [1] = test: Pre-emergence herbicidal action against PHBPU; format: in vivo, Pharbitis purpurea; details: dosage 80 g/ha
Outline: (§1)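 Pre-emergence soil-surface spray of formulated compound (WP or EC; 600 to 800 l/ha; 0.2% wetting agent) over seeds sown in sandy loam. After 3 weeks under greenhouse conditions, damage is estimated visually in percent against untreated plants.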

ABUTH [2] = test: Post-emergence herbicidal action against ABUTH; format: in vivo, Abutilon theophrasti; details: dosage 20 g/ha, visual assessment about 3 weeks after treatment vs untreated controls
Outline: (§2)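 Spray, one-leaf stage: WP or EC compound in water, 600–800 l/ha, 0.2% wetting agent. Plants held about 3 weeks in the greenhouse, then visually rated in percent of kill compared with untreated controls.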

DIGSA [3] = test: Pre-emergence herbicidal action against DIGSA; format: in vivo, Digitaria sanguinalis
Outline: as §1

VERPE [4] = test: Post-emergence herbicidal action against VERPE; format: in vivo, Veronica persica
Outline: as §2

MATIN [5] = test: Post-emergence herbicidal action against MATIN; format: in vivo, Matricaria inodora
Outline: as §2

ALOMY [6] = test: Post-emergence herbicidal action against ALOMY; format: in vivo, Alopecurus myosuroides; details: dosage 20 g/ha, visual assessment about 3 weeks after treatment vs untreated controls
Outline: as §2

ECHCG [7] = test: Post-emergence herbicidal action against ECHCG; format: in vivo, Echinochloa crus-galli; details: dosage 20 g/ha
Outline: as §2

POLCO = test: Pre-emergence herbicidal action against POLCO; format: in vivo, Polygonum convolvulus; details: dosage 80 g/ha
Outline: as §1

DIGSA [8] = test: Post-emergence herbicidal action against DIGSA; format: in vivo, Digitaria sanguinalis
Outline: as §2

ALOMY [9] = test: Pre-emergence herbicidal action against ALOMY; format: in vivo, Alopecurus myosuroides; details: pre-emergence
Outline: as §1

SETVI [10] = test: Pre-emergence herbicidal action against SETVI; format: in vivo, Setaria viridis
Outline: as §1

AMARE [11] = test: Post-emergence herbicidal action against AMARE; format: in vivo, Amaranthus retroflexus; details: 20 g/ha, visual assessment about 3 weeks after treatment, 100% = plants have died, 0% = like control plants
Outline: as §2

ECHCG [12] = test: Pre-emergence herbicidal action against ECHCG; format: in vivo, Echinochloa crus-galli; details: 80 g/ha
Outline: as §1

AVEFA = test: Pre-emergence herbicidal action against AVEFA; format: in vivo, Avena fatua; details: 80 g/ha, pre-emergence
Outline: as §1

VERPE [13] = test: Pre-emergence herbicidal action against VERPE; format: in vivo, Veronica persica
Outline: as §1

PHBPU [14] = test: Post-emergence herbicidal action against PHBPU; format: in vivo, Pharbitis purpurea; details: dosage 20 g/ha
Outline: as §2

ABUTH [15] = test: Pre-emergence herbicidal action against ABUTH; format: in vivo, Abutilon theophrasti
Outline: as §1

VIOTR [16] = test: Pre-emergence herbicidal action against VIOTR; format: in vivo, Viola tricolor
Outline: as §1

AMARE [17] = test: Pre-emergence herbicidal action against AMARE; format: in vivo, Amaranthus retroflexus
Outline: as §1

MATIN [18] = test: Pre-emergence herbicidal action against MATIN; format: in vivo, Matricaria inodora
Outline: as §1

VIOTR [19] = test: Post-emergence herbicidal action against VIOTR; format: in vivo, Viola tricolor; details: Viola tricolor, 504 h
Outline: as §2

SETVI [20] = test: Post-emergence herbicidal action against SETVI; format: in vivo, Setaria viridis; details: Setaria viridis, 504 h
Outline: as §2

[21] = 80 g/ha, scored visually after 3 weeks vs untreated controls (100% = plants have died, 0% = like control plants)
[22] = Tripleurospermum inodorum, 504 h, dosage 20 g/ha

SMILES: CC(NC(=O)c1c(C(F)F)ccc(C(=O)Nc2nnnn2C)c1Br)C1CC1 (stereo not drawn) [Example 1-340]
- Pre-emergence action against PHBPU in % (PHBPU [1]): 90%
- Post-emergence action against ABUTH in % (ABUTH [2]): 80%
- Pre-emergence action against DIGSA in % (DIGSA [3]; dosage 20 g/ha): 100%
- Pre-emergence action against DIGSA in % (DIGSA [3]; dosage 80 g/ha): 100%
- Post-emergence action against VERPE in % (VERPE [4]; 20 g/ha): 80%
- Post-emergence action against MATIN in % (MATIN [5]; dosage 20 g/ha): 80%
- Post-emergence action against ALOMY in % (ALOMY [6]): 80%
- Post-emergence action against ECHCG in % (ECHCG [7]): 90%
- Pre-emergence action against POLCO in % (POLCO): 90%
- Post-emergence action against DIGSA (DIGSA [8]; 20 g/ha): 90%
- Pre-emergence action against ALOMY (herbicidal activity) (ALOMY [9]; [21]): 90%
- Pre-emergence action against SETVI in % (SETVI [10]; dosage 20 g/ha): 90%
- Pre-emergence action against SETVI in % (SETVI [10]; dosage 80 g/ha): 100%
- Post-emergence action at 20 g/ha against AMARE in % (AMARE [11]): 90%
- Pre-emergence action against ECHCG in % (ECHCG [12]): 100%
- Pre-emergence action against AVEFA in % (AVEFA): 80%
- Pre-emergence action against VERPE in % (VERPE [13]; dosage 20 g/ha): 100%
- Pre-emergence action against VERPE in % (VERPE [13]; dosage 80 g/ha): 100%
- Post-emergence action against PHBPU in % (PHBPU [14]): 90%
- Pre-emergence action against ABUTH (herbicidal activity) (ABUTH [15]; [21]): 100%
- Pre-emergence action against ABUTH (herbicidal activity in percent) (ABUTH [15]; dosage 20 g/ha, scored visually after 3 weeks vs untreated controls, 100% = plants have died, 0% = like control plants): 100%
- Pre-emergence action against VIOTR in % (VIOTR [16]; dosage 20 g/ha): 100%
- Pre-emergence action against VIOTR in % (VIOTR [16]; dosage 80 g/ha): 100%
- Pre-emergence action against AMARE in % (AMARE [17]; 20 g/ha, scored visually after 3 weeks vs untreated controls, 100% = plants have died, 0% = like control plants): 100%
- Pre-emergence action against AMARE in % (AMARE [17]; [21]): 100%
- Pre-emergence action against MATIN in % (MATIN [18]; dosage 20 g/ha): 100%
- Pre-emergence action against MATIN in % (MATIN [18]; dosage 80 g/ha): 100%

SMILES: CCn1nnnc1NC(=O)c1ccc(C(F)(F)F)c(C(=O)NC)c1Br [Example 2-207]
- pest or weed control at 80 g/ha (PHBPU [1]; Ipomoea purpurea, 504 h): 80%
- pest or weed control at 20 g/ha (ABUTH [2]; Abutilon theophrasti, 504 h): 90%
- pest or weed control at 5 g/ha (VIOTR [19]; 5 g/ha): 100%
- pest or weed control at 20 g/ha (VIOTR [19]; 20 g/ha): 100%
- pest or weed control at 20 g/ha (DIGSA [3]; Digitaria sanguinalis, 504 h, dosage 20 g/ha): 90%
- pest or weed control at 80 g/ha (DIGSA [3]; Digitaria sanguinalis, 504 h, dosage 80 g/ha): 100%
- pest or weed control at 5 g/ha (VERPE [4]; Veronica persica, 504 h, 5 g/ha): 80%
- pest or weed control at 20 g/ha (VERPE [4]; Veronica persica, 504 h, 20 g/ha): 90%
- pest or weed control at 5 g/ha (MATIN [5]; Tripleurospermum inodorum, 504 h, dosage 5 g/ha): 80%
- pest or weed control at 20 g/ha (MATIN [5]; [22]): 90%
- pest or weed control at 20 g/ha (ALOMY [6]; Alopecurus myosuroides, 504 h): 90%
- pest or weed control at 80 g/ha (POLCO; Fallopia convolvulus, 504 h): 90%
- pest or weed control at 5 g/ha (DIGSA [8]; Digitaria sanguinalis, 504 h, 5 g/ha): 80%
- pest or weed control at 20 g/ha (DIGSA [8]; Digitaria sanguinalis, 504 h, 20 g/ha): 100%
- pest or weed control at 80 g/ha (ALOMY [9]; Alopecurus myosuroides, 504 h, 80 g/ha, scored visually after 3 weeks vs untreated controls (100% = plants have died, 0% = like control plants)): 90%
- pest or weed control at 20 g/ha (ALOMY [9]; Alopecurus myosuroides, 504 h, 20 g/ha, scored visually after 3 weeks, 100% = plants have died, 0% = like control plants): 80%
- pest or weed control at 20 g/ha (SETVI [10]; Setaria viridis, 504 h, dosage 20 g/ha): 100%
- pest or weed control at 80 g/ha (SETVI [10]; Setaria viridis, 504 h, dosage 80 g/ha): 100%
- pest or weed control at 20 g/ha (AMARE [11]; Amaranthus retroflexus, 504 h): 100%
- pest or weed control at 80 g/ha (ECHCG [12]; Echinochloa crus-galli, 504 h): 100%
- pest or weed control at 5 g/ha (SETVI [20]; dosage 5 g/ha): 90%
- pest or weed control at 20 g/ha (SETVI [20]; dosage 20 g/ha): 100%
- pest or weed control at 80 g/ha (AVEFA; Avena fatua, 504 h): 90%
- pest or weed control at 80 g/ha (VERPE [13]; Veronica persica, 504 h, dosage 80 g/ha): 90%
- pest or weed control at 20 g/ha (PHBPU [14]; Ipomoea purpurea, 504 h): 80%
- pest or weed control at 80 g/ha (ABUTH [15]; Abutilon theophrasti, 504 h, 80 g/ha, scored visually after 3 weeks vs untreated controls (100% = plants have died, 0% = like control plants)): 100%
- pest or weed control at 20 g/ha (ABUTH [15]; Abutilon theophrasti, 504 h, dosage 20 g/ha, scored visually after 3 weeks vs untreated controls, 100% = plants have died, 0% = like control plants, read-out: Pre-emergence action against ABUTH (herbicidal activity in percent)): 100%
- pest or weed control at 20 g/ha (VIOTR [16]; Viola tricolor, 504 h, dosage 20 g/ha): 90%
- pest or weed control at 80 g/ha (VIOTR [16]; Viola tricolor, 504 h, dosage 80 g/ha): 100%
- pest or weed control at 20 g/ha (AMARE [17]; Amaranthus retroflexus, 504 h, 20 g/ha, scored visually after 3 weeks vs untreated controls, 100% = plants have died, 0% = like control plants): 100%
- pest or weed control at 80 g/ha (AMARE [17]; Amaranthus retroflexus, 504 h, 80 g/ha, scored visually after 3 weeks vs untreated controls, 100% = plants have died, 0% = like control plants): 100%
- pest or weed control at 20 g/ha (MATIN [18]; [22]): 90%
- pest or weed control at 80 g/ha (MATIN [18]; Tripleurospermum inodorum, 504 h, dosage 80 g/ha): 100%
